Data taken from article PMC8080067, “Tight binding of cytochrome b5 to cytochrome P450 17A1 is a critical feature of stimulation of C21 steroid lyase activity and androgen synthesis” (The Journal of Biological Chemistry, 2021).
Where a chain is given by its changes, count along the chain named. Where two headings read alike, the source gives them in different places.

Tests used:
Assay in all cases: Steady-state kinetics of steroid 17α-hydroxylation and lyase reactions, reconstituted system
WT P450 17A1 = WT P450 17A1 (Homo sapiens, UniProt P05093)
Description: (§1) P450 catalytic activity assays to measure steroid hydroxylation and lyase reactions were carried out as described previously ([23], [37], [64]).
(§2) The reactions were initiated by adding an NADPH-regenerating system (final concentrations of 15 mM glucose 6-phosphate, 1.5 mM NADP^+, and 1 IU ml^−1 glucose 6-phosphate dehydrogenase) ([75]) and terminated by quenching and extracting with 2.0 ml CH2Cl2. Aliquots of the organic phases were dried and then dissolved in 100 μl of a CH3CN/H2O (1:1, v/v) mixture. […] The extraction procedure was then repeated, and the (Δ^4) reaction products were analyzed in a Waters Acquity UPLC system using a BEH C18 octadecylsilane column (2.1 mm × 100 mm, 1.7 μm). The reaction products were resolved using a mobile phase composed of solvents A (70% CH3OH, 30% H2O, v/v) and B (CH3CN), at a flow rate of 0.2 ml min^−1. The mobile phase linear gradient proceeded as follows: 0 to 1 min, 5% B; 4 min, 30% B; 4.5 min, 40% B; 4.55 to 6.75 min, 95% BA; and 7 to 10 min, 5% B. The reaction products were identified by coelution with commercial standards and quantified by the A243 peak areas. Steady-state kinetic parameters were estimated using nonlinear regression of hyperbolic fits in GraphPad Prism software, with equations used for kcat and the specificity constant kcat/Km ([76]): Y = (ksp ∗ X)/(1 + (ksp ∗ X/kcat)) and then deriving Km by division.

P450 17A1 R358Q variant = biological target: T1, P450 17A1 R358Q variant (Homo sapiens, UniProt P05093, R358Q)
T1 sequence (P05093 1-508 R358Q): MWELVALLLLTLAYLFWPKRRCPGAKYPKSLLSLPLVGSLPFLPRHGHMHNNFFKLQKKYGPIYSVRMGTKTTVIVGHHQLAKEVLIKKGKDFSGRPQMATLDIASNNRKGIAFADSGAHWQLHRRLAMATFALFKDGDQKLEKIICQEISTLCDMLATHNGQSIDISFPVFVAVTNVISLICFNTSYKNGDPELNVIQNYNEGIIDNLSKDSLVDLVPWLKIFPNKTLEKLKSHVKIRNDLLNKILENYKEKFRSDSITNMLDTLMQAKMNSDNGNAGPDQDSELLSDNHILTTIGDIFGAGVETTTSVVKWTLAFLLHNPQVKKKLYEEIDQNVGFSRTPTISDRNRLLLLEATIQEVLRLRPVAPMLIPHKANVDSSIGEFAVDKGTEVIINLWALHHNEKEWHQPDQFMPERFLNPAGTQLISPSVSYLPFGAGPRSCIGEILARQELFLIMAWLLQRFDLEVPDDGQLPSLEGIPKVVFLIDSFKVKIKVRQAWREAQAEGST
Description: as §1
as §2, with “The mobile phase linear gradient proceeded as follows: 0 to 1 min, 5% B; 4 min, 30% B; 4.5 min, 40% B; 4.55 to 6.75 min, 95% BA; and 7 to 10 min, 5% B. The reaction products were identified by coelution with commercial standards and quantified by the A243 peak areas.” left out

P450 17A1 R347H variant = biological target: T2, P450 17A1 R347H variant (Homo sapiens, UniProt P05093, R347H)
T2 sequence (P05093 1-508 R347H): T1 sequence (P05093 1-508 R358Q) with R347H, Q358R
Description: as §1
as §2, with “The mobile phase linear gradient proceeded as follows: 0 to 1 min, 5% B; 4 min, 30% B; 4.5 min, 40% B; 4.55 to 6.75 min, 95% BA; and 7 to 10 min, 5% B. The reaction products were identified by coelution with commercial standards and quantified by the A243 peak areas.” left out

P450 17A1 E305G variant = biological target: T3, P450 17A1 E305G variant (Homo sapiens, UniProt P05093, E305G)
T3 sequence (P05093 1-508 E305G): T1 sequence (P05093 1-508 R358Q) with E305G, Q358R
Description: as §1
as §2, with “The mobile phase linear gradient proceeded as follows: 0 to 1 min, 5% B; 4 min, 30% B; 4.5 min, 40% B; 4.55 to 6.75 min, 95% BA; and 7 to 10 min, 5% B. The reaction products were identified by coelution with commercial standards and quantified by the A243 peak areas.” left out

[1] = lyase reaction (conversion to androstenedione or DHEA)

Sequence of WT P450 17A1 (P05093 whole entry): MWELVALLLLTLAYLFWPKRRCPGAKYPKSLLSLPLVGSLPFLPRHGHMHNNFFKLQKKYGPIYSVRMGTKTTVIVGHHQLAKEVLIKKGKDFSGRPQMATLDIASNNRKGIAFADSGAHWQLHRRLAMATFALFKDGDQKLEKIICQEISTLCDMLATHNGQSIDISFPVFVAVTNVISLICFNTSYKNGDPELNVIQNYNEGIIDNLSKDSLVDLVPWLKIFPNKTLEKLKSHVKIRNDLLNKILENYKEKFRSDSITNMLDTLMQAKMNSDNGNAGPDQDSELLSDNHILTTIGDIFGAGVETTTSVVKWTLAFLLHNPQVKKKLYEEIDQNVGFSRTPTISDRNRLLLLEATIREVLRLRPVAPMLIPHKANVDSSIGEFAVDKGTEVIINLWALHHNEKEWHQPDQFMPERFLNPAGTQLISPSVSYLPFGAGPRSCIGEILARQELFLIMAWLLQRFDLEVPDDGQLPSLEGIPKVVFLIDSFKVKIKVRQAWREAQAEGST
Sequence of WT P450 17A1 (P00167 whole entry partner): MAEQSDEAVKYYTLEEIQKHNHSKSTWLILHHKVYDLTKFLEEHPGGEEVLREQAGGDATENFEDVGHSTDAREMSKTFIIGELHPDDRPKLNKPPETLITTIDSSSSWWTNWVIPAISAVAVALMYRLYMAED

| SMILES | % WT (kcat/Km) (WT P450 17A1) | % WT (kcat/Km) (P450 17A1 R358Q variant; 17α-hydroxylation) | % WT (kcat/Km) (P450 17A1 R347H variant; 17α-hydroxylation) | % WT (kcat/Km) (P450 17A1 E305G variant; 17α-hydroxylation) | % WT (kcat/Km) (WT P450 17A1; lyase reaction (conversion to androstenedione or DHEA), WT) | % WT (kcat/Km) (P450 17A1 R358Q variant; [1]) | % WT (kcat/Km) (P450 17A1 R347H variant; [1]) | % WT (kcat/Km) (P450 17A1 E305G variant; [1]) |
| --- | --- | --- | --- | --- | --- | --- | --- | --- |
| CC(=O)[C@H]1CC[C@H]2[C@@H]3CCC4=CC(=O)CC[C@]4(C)[C@H]3CC[C@]12C [Progesterone] | 100% | 11% | 4% | 8% | – | – | – | – |
| CC(=O)C1CCC2C3CC=C4C[C@@H](O)CC[C@]4(C)C3CC[C@]12C (stereo partly drawn) [Pregnenolone] | 100% | 12% | 19% | 0.7% | – | – | – | – |
| CC(=O)[C@@]1(O)CCC2C3CC=C4C[C@@H](O)CC[C@]4(C)C3CC[C@@]21C (stereo partly drawn) [17α-OH pregnenolone] | – | – | – | – | 100% | 0.6% | 1.1% | 0.7% |
